{"source": "patent US11607418B2", "about": "“Methods of treating SARS-CoV-2 infections” (Tyme, Inc., priority 2020, dated 2023)", "key": {"[1]": {"test_system": "SARS-CoV-2 (USA-WA1/2020 strain)", "experiment": "SARS-CoV-2 neutralization assay, cytopathic effects (CPE) in Vero E6 cells", "format": "cell-based", "details": "for Day 2 CPE / Day 4 CPE: 1.25 mg/mL, five replicate wells"}, "[2]": {"test_system": "SARS-CoV-2 infection / COVID-19", "experiment": "TUDCA capsules taken by persons with or exposed to COVID-19", "format": "in vivo", "details": "500 mg capsule twice per day"}, "[3]": {"details": "pre-incubation with virus 60 minutes"}, "[4]": {"details": "simultaneous addition of drug and virus, ~100 TCID50/well"}}, "data": [{"smiles": "C[C@H](CCC(=O)NCCS(=O)(=O)[O-])[C@H]1CC[C@H]2[C@@H]3[C@@H](O)C[C@@H]4C[C@H](O)CC[C@]4(C)[C@H]3CC[C@]12C.[Na+]", "note": "[Sodium TUDCA]", "values": [{"measurement": "Day 2 CPE", "setting": "[1]; [3]", "value": "no CPE"}, {"measurement": "Day 2 CPE", "setting": "[1]; [4]", "value": "no CPE"}, {"measurement": "Day 4 CPE", "setting": "[1]; [4]", "value": "no CPE"}]}, {"smiles": "CC(CCC(=O)NCCS(=O)(=O)O)C1CCC2C3C(O)CC4CC(O)CCC4(C)C3CCC12C", "note": "(stereo not shown) [TUDCA acid, tauroursodeoxycholic acid]", "values": [{"measurement": "EC50", "setting": "[1]; Severe acute respiratory syndrome coronavirus 2, Vero C1008, calculated by the Quest Graph EC50 Calculator, inhibition of SARS-CoV-2 CPE in Vero E6 cells", "value": 980, "unit": "µg/mL"}, {"measurement": "Day 2 CPE", "setting": "[1]; [3]", "value": "no CPE"}, {"measurement": "Day 2 CPE", "setting": "[1]; [4]", "value": "no CPE"}, {"measurement": "Day 4 CPE", "setting": "[1]; [4]", "value": "no CPE"}]}, {"smiles": "CC(CCC(=O)NCCS(=O)(=O)O)C1CCC2C3C(O)CC4CC(O)CCC4(C)C3CCC12C", "note": "(stereo not shown) [TUDCA, tauroursodeoxycholic acid]", "values": [{"measurement": "Health outcome of member who tested positive for SARS-CoV-2 with COVID-19 symptoms", "setting": "[2]; Example 2, oral, one rescue squad member", "value": "health returned to normal"}, {"measurement": "COVID-19 symptoms despite repeated exposure to COVID-19 patients", "setting": "[2]; Example 2, twelve rescue squad members, at least 3 months", "value": "None of the other twelve members have presented with COVID-19 symptoms"}, {"measurement": "Health outcome of subject presenting with COVID-19 symptoms", "setting": "[2]; Example 3, one subject", "value": "health returned to normal"}]}]}
